{"source": "patent US20140113314A1", "about": "“Two Pore Channels as a Therapeutic Target to Protect Against Myocardial Ischemia and as an Adjuvant in Cardiac Surgery” (priority 2006, published 2014)", "key": {"[1]": {"tested_on": "NaCN induced current from isolated guinea pig ventricular myocytes", "assay": "NaCN induced outward current, whole-cell patch clamp in single ventricular myocytes", "format": "cell-based", "conditions": "for peak current densities induced by NaCN in the presence of blocker / ratio of peak current density induced by NaCN in the presence of blocker to that on exposure to NaCN alone: blocker 200 μM; for sensitivity of NaCN induced current in the presence of altered internal pH: quinidine 0.5 mM (pHin 6.0), Zn^2+ 5 mM (pHin 9.0)"}, "[2]": {"tested_on": "NaCN induced current from isolated guinea pig ventricular myocytes", "conditions": "Ba^2+ 5 mM, extracellular, previously demonstrated; cited from earlier work"}, "[3]": {"tested_on": "myocytes", "assay": "Myocyte shrinkage associated with the NaCN induced current", "format": "cell-based, guinea pig", "conditions": "quinidine 0.5 mM, Zn2+ 3 mM"}, "[4]": {"tested_on": "IKATP", "assay": "IKATP activated by pinacidil together with low intracellular ATP, patch clamp in myocytes", "format": "cell-based, guinea pig", "conditions": "for effect on IKATP: IKATP activated by pinacidil 100 μM with intracellular ATP 0.1 mM, Zn^2+ 3 mM", "procedure": "All the cells were held at 0 mV.\nSingle Guinea pig heart cell preparation. Single cardiac myocytes were enzymatically isolated from adult male guinea pig hearts as described in (Gao et al 1992, J Physiol 449:689-704). Guinea pigs, weighing 300 to 500 g, were sacrificed by peritoneal injection with sodium pentobarbital solution (1 ml of 390 mg/ml) in accordance with an approved protocol approved by the IACUC committee at SUNY-Stony Brook. The heart was isolated and placed in Ca^2+ free Tyrode solution and the aorta was cannulated. The heart was then perfused with 50 ml of Ca2+ free Tyrode solution followed by 100 ml of Tyrode solution containing 30 mol/L CaCl2 and 0.4 mg/ml collagenase at 37° C. The heart was then placed in Ca^2+ free Tyrode solution at room temperature for 2 hours. Afterward, a piece of the ventricle was dissected and teased into smaller pieces in Kraft-Brühe (KB) solution (Isenberg et al., 1982 Pflugers Arch 395:6-18) containing (in mM): KCl 83; K2HPO4 30; MgSO4 5; Na-Pyruvic Acid 5; β-OH-Butyric Acid 5; Creatine 5; Taurine 20; Glucose 10; EGTA 0.5; KOH 2; Na2-ATP 5; pH was adjusted to 7.2 by KOH. The dissociated cells were then kept in KB solution at room temperature for at least 1 hour before the experiment. All solutions were bubbled with 100% O2. The isolated cells were stored in KB solution. An Axopatch 1D amplifier (Axon Instruments, Inc) and the patch clamp technique were employed to observe cell membrane current. Patch-pipette resistances were 2 to 3 MΩ before sealing. The pipette solution contained (in mM): K-Aspartic Acid 125; KCl 15; KOH 10; MgCl2 1; HEPES 10; EGTA 11; Mg-ATP 1; pH was adjusted to 7.2 by KOH. The external Tyrode solution contained (in mM): NaCl 137.7; NaOH 2.3; KCl 4; MgCl2 1; HEPES 5; CaCl2 1; CdCl2 1; Glucose 10; pH was adjusted to 7.4 by NaOH. Under these conditions, the L-type Ca^2+ current, the Na^+/Ca^2+ exchange current and the Na^+/K^+ pump current will be absent. […] All experiments were carried out at room temperature (22±1° C.). […] All patch clamp data were digitized by the data acquisition program pClamp8 (Axon Instruments, Inc) for later analysis. Cell capacitance was obtained for each cell and currents were normalized to cell capacitances."}, "[5]": {"tested_on": "temperature jump (TJ) induced current in guinea pig myocytes", "assay": "Temperature jump (TJ) induced current in myocytes", "format": "cell-based", "text": "FIG. 15. The characterization of temperature jump (TJ) induced current in guinea pig myocytes. A. Sample trace of TJ induced outward current. Note the current can decay on its own. B. The TJ induced current (upper panel) and its I/V relationships (lower panel). Cells were held at […] and were subject to depolarizing voltage ramps from […] to +50 mV (250 ms duration) with a frequency of 0.1 Hz. Since the current measured at the peak c is out of the current amplitude range of the amplifier, another point near the peak (b) was chosen to construct the I/V curves of the current. C, D, E, and F. Biophysical properties of TREK-1 a heat-activated K2P channel. […] I. Summary of the inhibitory effects of Zn^2+ and quinidine on the TJ induced current (unpaired p<0.01, t-test)."}}, "note": "“Also recorded” adds a separate entry of the source. Like-named read-outs stand apart in the source and are kept apart here."}
{"smiles": "Nc1ccncc1", "note": "[4AP, 4-Aminopyridine]", "values": [{"measurement": "peak current densities of NaCN induced current with blocker", "setting": "[1]; 4AP 4 mM, n=6", "value": "24.1±5.2", "unit": "pA/pF"}, {"measurement": "effect on NaCN induced current", "setting": "[1]; agent 4 mM", "value": "not reduced"}]}
{"smiles": "CCCCCC(O)CCCC(=O)O", "note": "(centres unmarked) [5-HD, 5-hydroxydecanoic acid]", "values": [{"measurement": "effect on NaCN induced current", "setting": "[1]; agent 200 μM", "value": "does not inhibit the NaCN induced current; also recorded: does not result in a reduced current amplitude"}, {"measurement": "peak current densities induced by NaCN in the presence of blocker", "setting": "[1]", "value": "24.7±2.6", "unit": "pA/pF"}, {"measurement": "ratio of peak current density induced by NaCN in the presence of blocker to that on exposure to NaCN alone", "setting": "[1]", "value": "1.3±0.1"}]}
{"smiles": "[Ba+2].[Cl-].[Cl-]", "note": "[Ba^2+, BaCl2]", "values": [{"measurement": "effect on NaCN induced current", "setting": "[1]; Ba^2+ 20 mM", "value": "can prevent the appearance of the NaCN induced current"}, {"measurement": "effect on NaCN induced current", "setting": "[1]; Ba^2+ 20 mM, listed as Ba2+", "value": "abolished"}, {"measurement": "effect on NaCN induced current", "setting": "[1]; Ba^2+ 5-10 mM", "value": "Partial inhibition"}, {"measurement": "effect on NaCN induced current", "setting": "[1]; Ba^2+ 20-40 mM", "value": "almost complete elimination"}, {"measurement": "effect on NaCN induced current", "setting": "[1]; agent 1 mM", "value": "neither Ba^2+ (1 mM, upper panel) nor Cs^+ (3 mM, lower panel) can prevent the appearance of the NaCN induced current"}, {"measurement": "effect on NaCN induced current", "setting": "[2]", "value": "partially blocked"}]}
{"smiles": "[Cl-].[Cs+]", "note": "[Cs^+, CsCl]", "values": [{"measurement": "peak current densities of NaCN induced current with blocker", "setting": "[1]; Cs^+ 3 mM, n=5", "value": "19.1±2.4", "unit": "pA/pF"}, {"measurement": "effect on NaCN induced current", "setting": "[1]; agent 3 mM, listed as Cs+", "value": "insensitive"}, {"measurement": "effect on NaCN induced current", "setting": "[1]; agent 3 mM, listed as CsCl", "value": "not affected"}]}
{"smiles": "COC(=O)[C@@H](N)CCCNC(=N)N[N+](=O)[O-]", "note": "[L-NAME]", "values": [{"measurement": "effect on NaCN induced current", "setting": "[1]; agent 200 μM", "value": "reduced; also recorded: reduces the current"}]}
{"smiles": "N=C(N)NCCC[C@H](N)C(=O)O", "note": "[L-arginine]", "values": [{"measurement": "effect on NaCN induced current", "setting": "[1]", "value": "can additionally activate an outward current; also recorded: increases the NaCN induced current"}]}
{"smiles": "[Cl-].[Cl-].[Zn+2]", "note": "[Zn^2+, ZnCl2]", "values": [{"measurement": "effect on NaCN induced current", "setting": "[1]; Zn^2+ 5 mM", "value": "completely abolish"}, {"measurement": "effect on NaCN induced current", "setting": "[1]; agent 3 mM", "value": "reversibly abolished; also recorded: can prevent the appearance of the current induced by NaCN"}, {"measurement": "effect on NaCN induced current", "setting": "[1]; agent 3 mM, listed as ZnCl2", "value": "completely blocked; also recorded: abolished"}, {"measurement": "sensitivity of NaCN induced current in the presence of altered internal pH", "setting": "[1]", "value": "remains sensitive"}, {"measurement": "effect on NaCN induced current and cell shrinkage", "setting": "[3]", "value": "prevent the appearance of the NaCN induced current and cell shrinkage"}, {"measurement": "effect on IKATP", "setting": "[4]", "value": "cannot be blocked; also recorded: unaffected"}, {"measurement": "effect on TJ induced current", "setting": "[5]", "value": "can prevent the appearance of TJ induced current"}]}
{"smiles": "COc1ccc(Cl)cc1C(=O)NCCc1ccc(S(=O)(=O)NC(=O)NC2CCCCC2)cc1", "note": "[glibenclamide]", "values": [{"measurement": "effect on NaCN induced current", "setting": "[1]; agent 200 μM", "value": "does not prevent the appearance of the NaCN induced current; also recorded: could not be abolished"}, {"measurement": "peak current densities induced by NaCN in the presence of blocker", "setting": "[1]", "value": "23.0±2.1", "unit": "pA/pF"}, {"measurement": "ratio of peak current density induced by NaCN in the presence of blocker to that on exposure to NaCN alone", "setting": "[1]", "value": "1.2±0.1"}, {"measurement": "effect on IKATP", "setting": "[4]", "value": "abolished"}]}
{"smiles": "CCCCC/C=C\\C/C=C\\C/C=C\\C/C=C\\CCCC(=O)N[C@H](C)CO", "note": "[methanandamide]", "values": [{"measurement": "effect on NaCN induced current", "setting": "[1]; methanandamide 20 μM", "value": "does not block the current induced by NaCN"}, {"measurement": "effect on NaCN induced current", "setting": "[1]; methanandamide 20 μM to 100 μM", "value": "does not prevent the appearance of the NaCN induced current"}, {"measurement": "effect on NaCN induced current", "setting": "[1]; methanandamide 40 and 100 μM", "value": "significant increase"}, {"measurement": "effect on NaCN induced current", "setting": "[1]; methanandamide 40 and 100 μM, listed as Methanandamide", "value": "significantly increased"}]}
{"smiles": "CC(N/C(=N\\C#N)Nc1ccncc1)C(C)(C)C", "note": "(centres unmarked) [pinacidil]", "values": [{"measurement": "activation of IKATP", "setting": "[4]; pinacidil 100 μM together with low intracellular ATP 0.1 mM", "value": "activated"}]}
{"smiles": "C=C[C@H]1C[N@@]2CC[C@H]1C[C@@H]2[C@@H](O)c1ccnc2ccc(OC)cc12", "note": "[quinidine]", "values": [{"measurement": "effect on NaCN induced current", "setting": "[1]; agent 1 mM", "value": "can prevent the appearance of the current induced by NaCN"}, {"measurement": "effect on NaCN induced current", "setting": "[1]; quinidine 0.5 mM", "value": "completely abolished; also recorded: can both block the peak current induced by NaCN and prevent its occurrence"}, {"measurement": "sensitivity of NaCN induced current in the presence of altered internal pH", "setting": "[1]", "value": "remains sensitive"}, {"measurement": "effect on NaCN induced current and cell shrinkage", "setting": "[3]", "value": "prevent the appearance of the NaCN induced current and cell shrinkage"}, {"measurement": "effect on IKATP", "setting": "[4]", "value": "unaffected"}, {"measurement": "effect on TJ induced current", "setting": "[5]", "value": "partially blocked"}]}
